According to US20190134005A1 (BioMarin Pharmaceutical Inc., priority 2016, published 2019):

target: T1, human CGT (Homo sapiens, UniProt Q16880); experiment: Assay 1: CGT Enzymatic Assay (RapidFire/MS/MS, 0.01% Tween 80); format: biochemical; conditions: not given
T1 sequence (Q16880 21-541): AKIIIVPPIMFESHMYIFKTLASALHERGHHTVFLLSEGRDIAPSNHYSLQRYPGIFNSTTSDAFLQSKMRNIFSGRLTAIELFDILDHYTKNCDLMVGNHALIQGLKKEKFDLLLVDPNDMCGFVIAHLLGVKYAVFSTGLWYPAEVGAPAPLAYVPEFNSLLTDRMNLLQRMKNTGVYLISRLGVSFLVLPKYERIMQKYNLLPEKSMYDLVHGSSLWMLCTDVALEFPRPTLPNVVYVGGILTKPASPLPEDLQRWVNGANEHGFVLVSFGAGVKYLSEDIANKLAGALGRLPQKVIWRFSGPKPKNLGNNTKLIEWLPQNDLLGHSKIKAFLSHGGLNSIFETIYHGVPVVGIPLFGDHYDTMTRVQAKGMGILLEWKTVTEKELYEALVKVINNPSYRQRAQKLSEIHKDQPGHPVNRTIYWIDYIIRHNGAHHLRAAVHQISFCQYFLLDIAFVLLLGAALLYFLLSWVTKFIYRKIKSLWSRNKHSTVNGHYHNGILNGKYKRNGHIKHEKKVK

| Compound | IC50 [µM] |
| --- | --- |
| O=C1N(c2ccc(Br)cc2)C(=O)C(O)(c2cc3ccccc3[nH]2)N1c1ccc(Br)cc1 (stereo not drawn) [Example 210, 1,3-bis(4-bromophenyl)-5-hydroxy-5-(1H-indol-2-yl)imidazolidine-2,4-dione] | 10 to 50 |

same assay, conditions: Table 1, Compounds of Formula (I) and Formula (II); CGT enzymatic assay; read-out: IC50

| IC50 [µM] | Compound |
| --- | --- |
| > 50 | O=C1N(c2ccc(Br)cc2)C(=O)C(O)(c2cccc3ccccc23)N1c1ccc(Br)cc1 (stereo not drawn) [Example 195, 1,3-bis(4-bromophenyl)-5-hydroxy-5-(naphthalen-1-yl)imidazolidine-2,4-dione] |
| < 1 | CC(C)C1N(c2ccc(C(F)(F)F)cc2)C(=O)N(c2ccc(C(F)(F)F)cc2)C1(O)c1cccc(OC(F)(F)F)c1 (stereo not drawn) [Example 196, 4-hydroxy-5-isopropyl-4-(3-(trifluoromethoxy)phenyl)-1,3-bis(4-(trifluoromethyl)phenyl)imidazolidin-2-one] |
| < 1 | CC(C)[C@@H]1N(c2ccc(C(F)(F)F)cc2)C(=O)N(c2ccc(C(F)(F)F)cc2)C1(O)c1cccc(OC(F)(F)F)c1 (stereo partly drawn) [Example 196-1, (5S)-4-hydroxy-5-isopropyl-4-(3-(trifluoromethoxy)phenyl)-1,3-bis(4-(trifluoromethyl)phenyl)imidazolidin-2-one] |
| 10 to 50 | O=C1N(c2ccc(Br)cc2)C(=O)C(O)(c2ccc(Cl)s2)N1c1ccc(Br)cc1 (stereo not drawn) [Example 197, 1,3-bis(4-bromophenyl)-5-(5-chlorothiophen-2-yl)-5-hydroxyimidazolidine-2,4-dione] |
| > 50 | O=C1N(c2ccc(Br)cc2)C(=O)C(O)(c2ccco2)N1c1ccc(Br)cc1 (stereo not drawn) [Example 198, 1,3-bis(4-bromophenyl)-5-(furan-2-yl)-5-hydroxyimidazolidine-2,4-dione] |
| > 50 | CCCCCCCCC1(O)C(=O)N(c2ccc(Br)cc2)C(=O)N1c1ccc(Br)cc1 (stereo not drawn) [Example 199, 1,3-bis(4-bromophenyl)-5-hydroxy-5-octylimidazolidine-2,4-dione] |
| 50 to 100 | Cc1ccc(C2(O)C(=O)N(c3ccc(Br)cc3)C(=O)N2c2ccc(Br)cc2)cc1 (stereo not drawn) [Example 200, 1,3-bis(4-bromophenyl)-5-hydroxy-5-(p-tolyl)imidazolidine-2,4-dione] |
| > 50 | O=C1N(c2ccc(Br)cc2)C(=O)C(O)(c2nccs2)N1c1ccc(Br)cc1 (stereo not drawn) [Example 201, 1,3-bis(4-bromophenyl)-5-hydroxy-5-(thiazol-2-yl)imidazolidine-2,4-dione] |
| 10 to 50 | COc1ccc(C2(O)C(=O)N(c3ccc(Br)cc3)C(=O)N2c2ccc(Br)cc2)cn1 (stereo not drawn) [Example 202, 1,3-bis(4-bromophenyl)-5-hydroxy-5-(6-methoxypyridin-3-yl)imidazolidine-2,4-dione] |
| 50 to 100 | O=C1N(c2ccc(Br)cc2)C(=O)C(O)(c2cccs2)N1c1ccc(Br)cc1 (stereo not drawn) [Example 205, 1,3-bis(4-bromophenyl)-5-hydroxy-5-(thiophen-2-yl)imidazolidine-2,4-dione] |
| > 50 | COc1ccccc1C1(O)C(=O)N(c2ccc(Br)cc2)C(=O)N1c1ccc(Br)cc1 (stereo not drawn) [Example 206, 1,3-bis(4-bromophenyl)-5-hydroxy-5-(2-methoxyphenyl)imidazolidine-2,4-dione] |
| 10 to 50 | O=C1N(c2ccc(Br)cc2)C(=O)C(O)(C2CCOCC2)N1c1ccc(Br)cc1 (stereo not drawn) [Example 207, 1,3-bis(4-bromophenyl)-5-hydroxy-5-(tetrahydro-2H-pyran-4-yl)imidazolidine-2,4-dione] |
| 50 to 100 | COc1ccc(C2(O)C(=O)N(c3ccc(Br)cc3)C(=O)N2c2ccc(Br)cc2)nc1 (stereo not drawn) [Example 208, 1,3-bis(4-bromophenyl)-5-hydroxy-5-(5-methoxypyridin-2-yl)imidazolidine-2,4-dione] |
| 10 to 50 | O=C1N(c2ccc(Br)cc2)C(O)[C@@](c2ccccc2)(C2CC2)N1c1ccc(Br)cc1 (stereo partly drawn) [Example 209-1, (4S)-1,3-bis(4-bromophenyl)-4-cyclopropyl-5-hydroxy-4-phenylimidazolidin-2-one] |
| < 1 | O=C1N(c2ccc(Br)cc2)C(O)[C@](c2ccccc2)(C2CC2)N1c1ccc(Br)cc1 (stereo partly drawn) [Example 209-2, (4R)-1,3-bis(4-bromophenyl)-4-cyclopropyl-5-hydroxy-4-phenylimidazolidin-2-one] |
| 10 to 50 | O=C1N(c2ccc(Br)cc2)C(=O)C(O)(c2ccc[nH]2)N1c1ccc(Br)cc1 (stereo not drawn) [Example 211, 1,3-bis(4-bromophenyl)-5-hydroxy-5-(1H-pyrrol-2-yl)imidazolidine-2,4-dione] |
| < 1 | N#Cc1cccc(C2(O)N(c3ccc(C(F)(F)F)cc3)C(=O)N(c3ccc(C(F)(F)F)cc3)C23CCC3)c1 (stereo not drawn) [Example 212, 3-(8-hydroxy-6-oxo-5,7-bis(4-(trifluoromethyl)phenyl)-5,7-diazaspiro[3.4]octan-8-yl)benzonitrile] |

| IC50 [µM] | Compound |
| --- | --- |
| > 50 | O=C1N(c2ccc(Br)cc2)C(=O)C(O)(c2cc3ccccc3o2)N1c1ccc(Br)cc1 (stereo not drawn) [Example 213, 5-(benzofuran-2-yl)-1,3-bis(4-bromophenyl)-5-hydroxyimidazolidine-2,4-dione] |
| 10 to 50 | O=C1N(c2ccc(Br)cc2)C(=O)C(O)(c2cc3ccccc3s2)N1c1ccc(Br)cc1 (stereo not drawn) [Example 214, 5-(benzo[b]thiophen-2-yl)-1,3-bis(4-bromophenyl)-5-hydroxyimidazolidine-2,4-dione] |
| 50 to 100 | O=C1N(c2ccc(Br)cc2)C(=O)C(O)(C2Cc3ccccc3C2)N1c1ccc(Br)cc1 (stereo not drawn) [Example 215, 1,3-bis(4-bromophenyl)-5-(2,3-dihydro-1H-inden-2-yl)-5-hydroxyimidazolidine-2,4-dione] |
| > 50 | O=C1N(c2ccc(Br)cc2)C(=O)C(O)(C(F)(F)F)N1c1ccc(Br)cc1 (stereo not drawn) [Example 216, 1,3-bis(4-bromophenyl)-5-hydroxy-5-(trifluoromethyl)imidazolidine-2,4-dione] |
| 1 to 10 | CCOC(=O)C1(O)C(c2ccccc2)N(c2ccc(Cl)cc2)C(=O)N1c1ccc(Cl)cc1 (stereo not drawn) [Example 217, ethyl 1,3-bis(4-chlorophenyl)-4-hydroxy-2-oxo-5-phenylimidazolidine-4-carboxylate] |
| 10 to 50 | O=C1N(c2ccc(Cl)cc2)C(c2ccccc2)C(O)(CO)N1c1ccc(Cl)cc1 (stereo not drawn) [Example 218, 1,3-bis(4-chlorophenyl)-4-hydroxy-4-(hydroxymethyl)-5-phenylimidazolidin-2-one] |
| 10 to 50 | O=C1N(c2ccc(Cl)cc2)[C@H](c2ccccc2)[C@](O)(CO)N1c1ccc(Cl)cc1 [Example 218-1, (4S,5R)-1,3-bis(4-chlorophenyl)-4-hydroxy-4-(hydroxymethyl)-5-phenylimidazolidin-2-one] |
| 10 to 50 | O=C1N(c2ccc(Cl)cc2)[C@@H](c2ccccc2)[C@@](O)(CO)N1c1ccc(Cl)cc1 [Example 218-2, (4R,5S)-1,3-bis(4-chlorophenyl)-4-hydroxy-4-(hydroxymethyl)-5-phenylimidazolidin-2-one] |
| 10 to 50 | C[C@]1(c2cccc(C(F)(F)F)c2)C(O)N(c2ccc(Br)cc2)C(=O)N1c1ccc(Br)cc1 (stereo partly drawn) [Example 219-1, (4S)-1,3-bis(4-bromophenyl)-5-hydroxy-4-methyl-4-(3-(trifluoromethyl)phenyl)imidazolidin-2-one] |
| < 1 | C[C@@]1(c2cccc(C(F)(F)F)c2)C(O)N(c2ccc(Br)cc2)C(=O)N1c1ccc(Br)cc1 (stereo partly drawn) [Example 219-2, (4R)-1,3-bis(4-bromophenyl)-5-hydroxy-4-methyl-4-(3-(trifluoromethyl)phenyl)imidazolidin-2-one] |
| < 1 | CC(C)C1(c2cccc(OC(F)(F)F)c2)C(O)N(c2ccc(Cl)cc2)C(=O)N1c1ccc(Cl)cc1 (stereo not drawn) [Example 220, 1,3-bis(4-chlorophenyl)-5-hydroxy-4-isopropyl-4-(3-(trifluoromethoxy)phenyl)imidazolidin-2-one] |
| < 1 | N#Cc1cccc(C2(O)N(c3ccc(Cl)cc3)C(=O)N(c3ccc(Cl)cc3)C23CCOC3)c1 (stereo not drawn) [Example 221, 3-(1,3-bis(4-chlorophenyl)-4-hydroxy-2-oxo-7-oxa-1,3-diazaspiro[4.4]nonan-4-yl)benzonitrile] |
| < 1 | N#Cc1cccc(C2(O)N(c3ccc(Cl)cc3)C(=O)N(c3ccc(Cl)cc3)[C@]23CCOC3)c1 (stereo partly drawn) [Example 221-1, 3-((5S)-1,3-bis(4-chlorophenyl)-4-hydroxy-2-oxo-7-oxa-1,3-diazaspiro[4.4]nonan-4-yl)benzonitrile] |
| < 1 | N#Cc1cccc(C2(O)N(c3ccc(Cl)cc3)C(=O)N(c3ccc(Cl)cc3)[C@@]23CCOC3)c1 (stereo partly drawn) [Example 221-2, 3-((5R)-1,3-bis(4-chlorophenyl)-4-hydroxy-2-oxo-7-oxa-1,3-diazaspiro[4.4]nonan-4-yl)benzonitrile] |
| < 1 | Cc1cccc(C2(C)C(O)N(c3ccc(Cl)cc3)C(=O)N2c2ccc(Cl)cc2)c1 (stereo not drawn) [Example 222, 1,3-bis(4-chlorophenyl)-5-hydroxy-4-methyl-4-(m-tolyl)imidazolidin-2-one] |
| < 1 | O=C1N(c2ccc(Cl)cc2)C2(CC2)C(O)(c2cccc(OC(F)(F)F)c2)N1c1ccc(Cl)cc1 (stereo not drawn) [Example 224, 4,6-bis(4-chlorophenyl)-7-hydroxy-7-(3-(trifluoromethoxy)phenyl)-4,6-diazaspiro[2.4]heptan-5-one] |
| < 1 | O=C1N(c2ccc(Cl)cc2)C2(CC2)C(O)(c2cccc(C(F)(F)F)c2)N1c1ccc(Cl)cc1 (stereo not drawn) [Example 225, 4,6-bis(4-chlorophenyl)-7-hydroxy-7-(3-(trifluoromethyl)phenyl)-4,6-diazaspiro[2.4]heptan-5-one] |

| Compound | IC50 [µM] |
| --- | --- |
| O=C1N(c2ccc(I)cc2)C(=O)C(O)(c2ccccc2)N1c1ccc(I)cc1 (stereo not drawn) [Example 203, 5-hydroxy-1,3-bis(4-iodophenyl)-5-phenylimidazolidine-2,4-dione] | 10 to 50 |
